Experimental data taken from paper PMC11009648, “Development of an orally bioavailable mSWI/SNF ATPase degrader and acquired mechanisms of resistance in prostate cancer” (Proceedings of the National Academy of Sciences of the …, 2024).

How the values were obtained:
[1] = system: proteome of VCaP cells (SMARCA2, SMARCA4, PBRM1); test: TMT mass spectrometry proteomics of VCaP cells; format: cell-based, human
Protocol: Cells were plated at 5 × 10^6 cells per well in a 6-well plate overnight prior to treatment with DMSO, 100 nM AU-24118, or 1 μM AU-15330 for 2 h. Whole cell lysates were prepared in RIPA buffer (Thermo Fisher) supplemented with tablets of cOmpleteTM protease inhibitor cocktail (Sigma-Aldrich). For each condition, 75 µg of total protein was labeled with TMT isobaric Label Reagent (Thermo Fisher) according to the manufacturer’s protocol and subjected to 12 fractions of liquid chromatography–MS (LC–MS)/MS analysis.

[2] = In vivo pharmacokinetics in rats; settings: plasma; for Cmax: read-out: Cmax/C0
Text: (§1) All experimental procedures relating to animal care, handling, and treatment were approved by the Institutional Animal Ethics Committee of Aurigene Oncology Ltd. based on the Committee for Control and Supervision of Experiments on Animals guidelines. Animals were included for experimentation after 1 wk of acclimatization to standard laboratory conditions and were provided with reverse osmosis-treated water and rodent pellet diet ad libitum.
(§2) The pharmacokinetic profile of AU-24118 was studied in both mice and rats. For assessment of oral bioavailability, AU-24118 was administered by intravenous (i.v.) and oral (p.o.) routes at 1 mg/kg and 30 mg/kg doses, respectively (n = 3). For the oral arm, AU-24118 was administered as a solution formulation in 10% PEG200, 50% of 20% D-α-Tocopherol polyethylene glycol 1000 succinate and 40% of 1% Tween-80 in water while AU-24118 was formulated in 2% DMA and 10% HPβCD in saline (qs) for the intravenous administration.
(§3) Concentrations of AU-24118 were determined in plasma samples using a nonvalidated (fit for purpose) LC–MS/MS method in positive Multiple Reaction Monitoring mode with transition pair of m/z: 633.11→344.00. Either Carbamazepine (with a transition pair of m/z: 237.07→194.10) or Telmisartan (with a transition pair of m/z: 515.16→276.00) were used as internal standards. Sample processing was carried out by protein precipitation followed by evaporation method. Compound concentrations were calculated using Analyst® software 1.7.2 with linear/quadratic regression algorithm (with 1/×2 weighting factor) over a quantification range of 1 ng/mL to 2,500 ng/mL with the low and high ends of this range defining the lower limit of quantitation and upper limit of quantitation, respectively.

[3] = Toxicity and maximum tolerated dose in tumor-free CB17 SCID mice; format: in vivo
Protocol: To evaluate the preclinical safety of AU-24118, we conducted extensive toxicity analyses with AU-24118 in mice. First, to establish the maximum tolerated dose, we implemented a dosage escalation experiment in CB17 SCID (severe combined immunodeficiency) tumor-free mice.
We further characterized the host organ (spleen, kidney, and liver) morphology and function upon AU-24118 treatment at the maximum tolerated dose (15 mg/kg) in CB17 SCID mice. […] Additionally, we evaluated liver and kidney function using a blood panel on a separate cohort of CB17 SCID mice that underwent 25 d treatment with AU-24118 at the maximum tolerated dose.
Organs (liver, spleen, and kidney) were harvested from mice and fixed in neutral buffered formalin (10%) and subsequently embedded in paraffin to generate tissue blocks. These blocks were then sectioned at a thickness of 4 µm and stained using Harris hematoxylin (Leica Surgipath) and alcoholic eosin-Y stain (Leica Surgipath). Staining was executed using the automated Leica autostainer-XL platform. Upon staining, the sections were subsequently analyzed by two pathologists on a brightfield microscope to determine morphology and architectural coherence. These pathological assessments were performed in a blinded manner. Detailed and comprehensive analysis of cellular and -subcellular level changes of organs were performed as previously described ([16]).

[4] = system: panel of human cancer or normal cell lines; test: Cell-TiterGlo viability assays in a panel of cell lines; format: cell-based; settings: 5 d of treatment; sensitive: IC50 < 100 nM, resistant: IC50 > 100 nM
Protocol: (§4) Cells were seeded onto 96-well plates in appropriate culture media and allowed to adhere overnight prior to treatment. The next day, a nine-point serial dilution of the compounds was prepared and added to the plates. After treatment, the cells were then incubated for an additional 5 d. On the last day of treatment, the CellTiter-Glo cell viability assay (Promega) was then executed in accordance with the manufacturer’s guidelines. The signal (luminescence) from each well was determined using an Infinite M1000 Pro plate reader (Tecan). Relative viability was determined by dividing the signal from each well by the average of the control condition in each experiment. Finally, the data were analyzed and plotted using GraphPad Prism.

[5] = system: SMARCA4 (BRG1) and PBRM1 in VCaP cells; test: Immunoblot of target degradation in VCaP cells; format: cell-based, human; settings: 4 h, identical treatment conditions
Protocol: Lysates were prepared using radioimmunoprecipitation assay buffer (Thermo Fisher) with cOmpleteTM protease inhibitor cocktail tablets (Sigma-Aldrich) added. Total protein for each sample was determined using the DC Protein Assay (Bio-Rad) according to the manufacturer’s instructions. A standardized quantity of protein was resolved using NuPAGE Tris-Acetate Protein Gel (3 to 8%) (Thermo Fisher) or NuPAGE Bis-Tris Protein Gel (4 to 12%) (Thermo Fisher) and probed with primary antibodies as indicated. Following incubation with secondary antibodies conjugated with horseradish peroxidase, membranes were imaged on an Odyssey Fc Imager (LiCOR Biosciences).

[6] = system: 22Rv1-wild type (WT) cells; test: CellTiter-Glo cell viability assay in 22Rv1 wild type cells; format: cell-based, human; settings: Homo sapiens, 22Rv1, Fig. S5F; 22Rv1 WT
Protocol: as §4

[7] = In vivo pharmacokinetics in mice; settings: plasma; for Cmax: read-out: Cmax/C0
Text: as §1, §2, §3

[8] = In vivo pharmacokinetics in mice; settings: mouse, plasma, oral, dose escalation (Fig. 1G)
[9] = mouse, iv, CD1 Mice, I.V. 1mg/kg
[10] = mouse, po, CD1 Mice, P.O. 30mg/kg
[11] = mouse, mice, oral, 10mg/kg, dose escalation (Fig. 1G)
[12] = mouse, mice, oral, 30mg/kg, dose escalation (Fig. 1G)

## Nc1nnc(-c2ccccc2O)cc1-c1ccc(N2CCC(N3CCC(c4ccc(OC5CCC(=O)NC5=O)cc4)CC3)CC2)cc1 (stereo not shown) [AU-24118]
[1]; VCaP cells, 100 nM AU-24118, 2 h
  selectivity of degradation, MS-based proteomics: selectively degraded SMARCA2, SMARCA4, and PBRM1
[1]; human cell line (VCaP)
  degradation of IMiD neosubstrates, proteomics: not found to degrade any canonical immunomodulatory imide drug (IMiD) neosubstrates such as IKZF1, IKZF3, and GSPT1
[2]; Wistar, rat, oral, rats, i.v. 1 mg/kg, p.o. 30 mg/kg, read-out: Oral bioavailability (%F)
  bioavailability: 16.3%
[2]; iv, Wistar Rat, I.V. 1mg/kg
  AUC(0-inf): 756 ng·h/mL
  AUC(0-t): 670 ng·h/mL
  Cmax: 96.2 ng/mL
[2]; iv, Wistar Rat, I.V. 1mg/kg, read-out: Beta t1/2 (converted)
  half-life: 481 min
[2]; iv, Wistar Rat, I.V. 1mg/kg, read-out: CI (Clearance)
  clearance: 22.1 mL/min/kg
[2]; iv, Wistar Rat, I.V. 1mg/kg, read-out: Vdss
  Vd: 13.3 L/kg
[2]; po, Wistar Rat, P.O. 30mg/kg
  AUC(0-t): 3280 ng·h/mL
  Cmax: 184 ng/mL
[3]; CB17 SCID mice, 15 mg/kg
  H&E staining of spleen, kidney and liver: no discernible toxicity in normal tissues
[3]; CB17 SCID mice, 25 d treatment, 15 mg/kg
  blood panel of liver and kidney function (ALT, AST, BUN, CREA): slight elevation in alanine transaminases
[3]; CB17 SCID tumor-free mice, 20 mg/kg three times weekly
  tolerability (body weight, morbidity): noticeable weight loss after the first week, culminating in morbidity or fatality by the second week
[3]; CB17 SCID tumor-free mice, up to 15 mg/kg three times weekly
  tolerability (body weight): well-tolerated responses
[3]; mouse, in vivo, oral, CB17 SCID mice, dosed three times weekly
  MTD: 15 mg/kg
[4]
  cell viability preference across diverse cell lines: notable preference for inhibiting transcription factor–addicted cancer cells
[5]
  degradation of SMARCA4 and PBRM1, immunoblot: comparable degradation efficacy of SMARCA4 and PBRM1 to AU-15330
[6]
  IC50: 9.42 nM
[7]; CD1, mouse, oral, mice, i.v. 1 mg/kg, p.o. 30 mg/kg, read-out: Oral bioavailability (%F)
  bioavailability: 33.4%
[7]; [9]
  AUC(0-inf): 1680 ng·h/mL
  AUC(0-t): 1630 ng·h/mL
  Cmax: 443 ng/mL
[7]; mouse, iv, CD1 Mice, I.V. 1mg/kg, read-out: Beta t1/2 (converted)
  half-life: 286 min
[7]; mouse, iv, CD1 Mice, I.V. 1mg/kg, read-out: CI (Clearance)
  clearance: 10 mL/min/kg
[7]; mouse, iv, CD1 Mice, I.V. 1mg/kg, read-out: Vdss
  Vd: 3.3 L/kg
[7]; [10]
  AUC(0-t): 16300 ng·h/mL
  Cmax: 1030 ng/mL
[7]; [11]
  Tmax: 6 h
  Cmax: 345 ng/mL
[7]; [12]
  AUC(0-t): 14700 ng·h/mL
  Tmax: 3 h
  Cmax: 1190 ng/mL
[7]; mouse, mice, oral, 100mg/kg, dose escalation (Fig. 1G)
  Tmax: 4 h
[8]; 10mg/kg
  AUC(0-t): 4930 ng·h/mL
[8]; 100mg/kg
  AUC(0-t): 32200 ng·h/mL
[8]; 100mg/kg, read-out: Cmax/C0
  Cmax: 1930 ng/mL
